# Results published in US20090299044A1 (priority 2006, published 2009).
# Bridge positions count the residues as written; N and C are the ends. Square brackets hold non-standard residues; d marks the D form. Peptide text beside a SMILES is read from it. 1Nal = N[C@@H](Cc1cccc2ccccc12)C(=O)O
# Experiments:
# human Kv1.3 (CHO) = molecular target: T1, human Kv1.3 (CHO) (Homo sapiens, UniProt P22001); test: cell-based
# T1 construct: expressed in transfected cells; host or cells: CHO
# human Kv1.1 (HEK293) = molecular target: T2, human Kv1.1 (HEK293) (Homo sapiens, UniProt Q09470); test: cell-based
# T2 construct: expressed in transfected cells; host or cells: HEK293
# T2 sequence (Q09470 whole entry): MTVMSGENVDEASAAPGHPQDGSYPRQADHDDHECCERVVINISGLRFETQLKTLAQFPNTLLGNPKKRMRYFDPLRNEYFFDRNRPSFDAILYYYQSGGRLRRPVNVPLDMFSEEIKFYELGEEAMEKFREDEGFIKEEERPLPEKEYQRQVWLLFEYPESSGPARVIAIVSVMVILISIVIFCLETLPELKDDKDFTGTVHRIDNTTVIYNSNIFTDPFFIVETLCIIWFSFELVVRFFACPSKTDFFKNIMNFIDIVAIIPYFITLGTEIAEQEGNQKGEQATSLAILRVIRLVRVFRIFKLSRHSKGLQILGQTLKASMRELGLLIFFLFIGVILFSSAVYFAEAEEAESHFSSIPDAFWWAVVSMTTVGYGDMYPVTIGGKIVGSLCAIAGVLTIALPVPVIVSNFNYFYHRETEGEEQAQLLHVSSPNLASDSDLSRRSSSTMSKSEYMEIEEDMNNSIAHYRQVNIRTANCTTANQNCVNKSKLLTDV
# T1 sequence (P22001 whole entry): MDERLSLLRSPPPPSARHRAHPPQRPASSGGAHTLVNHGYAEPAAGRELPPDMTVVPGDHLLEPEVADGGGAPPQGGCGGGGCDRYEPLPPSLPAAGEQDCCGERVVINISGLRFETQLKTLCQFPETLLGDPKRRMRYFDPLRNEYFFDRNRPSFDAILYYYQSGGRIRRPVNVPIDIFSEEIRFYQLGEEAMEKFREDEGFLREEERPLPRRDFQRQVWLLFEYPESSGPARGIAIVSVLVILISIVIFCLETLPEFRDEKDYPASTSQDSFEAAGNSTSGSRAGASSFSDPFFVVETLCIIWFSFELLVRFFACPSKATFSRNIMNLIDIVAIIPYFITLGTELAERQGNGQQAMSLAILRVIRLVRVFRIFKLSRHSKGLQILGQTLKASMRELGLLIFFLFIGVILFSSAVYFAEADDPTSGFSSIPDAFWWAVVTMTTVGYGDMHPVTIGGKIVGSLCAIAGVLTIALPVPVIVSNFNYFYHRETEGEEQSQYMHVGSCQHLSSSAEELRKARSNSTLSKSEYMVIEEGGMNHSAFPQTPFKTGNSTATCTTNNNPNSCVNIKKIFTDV
Compound,IC50 (human Kv1.3 (CHO)),IC50 (human Kv1.1 (HEK293))
"CC[C@H](C)[C@@H]1NC(=O)[C@H](CCCCN)NC(=O)[C@@H](NC(=O)[C@H](CCCCN)NC(=O)[C@@H](NC(=O)[C@H](CC(N)=O)NC(=O)[C@@H](NC(=O)[C@@H](NC(=O)[C@@H](NC(=O)CN)C(C)C)[C@@H](C)CC)[C@@H](C)CC)C(C)C)CSSC[C@@H]2NC(=O)[C@H](CCCCN)NC(=O)CNC(=O)[C@H](Cc3ccccc3)NC(=O)[C@H](CCCNC(=N)N)NC(=O)[C@H](CCSC)NC(=O)CNC(=O)[C@H](C)NC(=O)[C@H](CCCCN)NC(=O)[C@H](CCCCN)NC(=O)[C@@H]3CSSC[C@@H](C(=O)N[C@H](C(=O)N4CCC[C@H]4C(=O)N[C@@H](CCCCN)C(=O)O)[C@@H](C)O)NC(=O)[C@H](Cc4c[nH]cn4)NC(=O)[C@H](CSSC[C@H](NC(=O)[C@H](CCC(N)=O)NC(=O)[C@H](CCCNC(=N)N)NC(=O)[C@H](CO)NC1=O)C(=O)N[C@@H](Cc1cccc4ccccc14)C(=O)N[C@@H](CCC(=O)O)C(=O)N1CCC[C@H]1C(=O)N3)NC(=O)[C@H](CCCCN)NC(=O)CNC(=O)[C@H](CC(N)=O)NC(=O)[C@H](CCSC)NC2=O [L15Nal] (H-GVIINVKCKISRQC[1Nal]EPCKKAGMRFGKCMNGKCHCTPK-OH; disulfide 8-28, 14-33, 18-35)",0.0178 nM,< 0.00152 nM
"CC[C@H](C)[C@@H]1NC(=O)[C@H](CCCCN)NC(=O)[C@@H](NC(=O)[C@H](CCCCN)NC(=O)[C@@H](NC(=O)[C@H](CC(N)=O)NC(=O)[C@@H](NC(=O)[C@@H](NC(=O)[C@@H](NC(=O)CN)C(C)C)[C@@H](C)CC)[C@@H](C)CC)C(C)C)CSSC[C@@H]2NC(=O)[C@H](CCCCN)NC(=O)CNC(=O)[C@H](Cc3ccccc3)NC(=O)[C@H](CCCNC(=N)N)NC(=O)[C@H](CCSC)NC(=O)CNC(=O)[C@H](C)NC(=O)[C@H](CCCCN)NC(=O)[C@H](CCCCN)NC(=O)[C@@H]3CSSC[C@@H](C(=O)N[C@H](C(=O)N4CCC[C@H]4C(=O)N[C@@H](CCCCN)C(=O)O)[C@@H](C)O)NC(=O)[C@H](Cc4c[nH]cn4)NC(=O)[C@H](CSSC[C@H](NC(=O)[C@H](CCC(N)=O)NC(=O)[C@H](CCCNC(=N)N)NC(=O)[C@H](CO)NC1=O)C(=O)N[C@@H](CCCNC(=N)N)C(=O)N[C@@H](CCC(=O)O)C(=O)N1CCC[C@H]1C(=O)N3)NC(=O)[C@H](CCCCN)NC(=O)CNC(=O)[C@H](CC(N)=O)NC(=O)[C@H](CCSC)NC2=O [L15R] (H-GVIINVKCKISRQCREPCKKAGMRFGKCMNGKCHCTPK-OH; disulfide 8-28, 14-33, 18-35)",0.0137 nM,0.00216 nM
"CC[C@H](C)[C@@H]1NC(=O)[C@H](CCCCN)NC(=O)[C@@H](NC(=O)[C@H](CCCCN)NC(=O)[C@@H](NC(=O)[C@H](CC(N)=O)NC(=O)[C@@H](NC(=O)[C@@H](NC(=O)[C@@H](NC(=O)CN)C(C)C)[C@@H](C)CC)[C@@H](C)CC)C(C)C)CSSC[C@@H]2NC(=O)[C@H](CCCCN)NC(=O)CNC(=O)[C@H](Cc3ccccc3)NC(=O)[C@H](CCCNC(=N)N)NC(=O)[C@H](C)NC(=O)CNC(=O)[C@H](C)NC(=O)[C@H](CCCCN)NC(=O)[C@H](CCCCN)NC(=O)[C@@H]3CSSC[C@@H](C(=O)N[C@H](C(=O)N4CCC[C@H]4C(=O)N[C@@H](CCCCN)C(=O)O)[C@@H](C)O)NC(=O)[C@H](Cc4c[nH]cn4)NC(=O)[C@H](CSSC[C@H](NC(=O)[C@H](CCC(N)=O)NC(=O)[C@H](CCCNC(=N)N)NC(=O)[C@H](CO)NC1=O)C(=O)N[C@@H](CC(C)C)C(=O)N[C@@H](CCC(=O)O)C(=O)N1CCC[C@H]1C(=O)N3)NC(=O)[C@H](CCCCN)NC(=O)CNC(=O)[C@H](CC(N)=O)NC(=O)[C@H](CCSC)NC2=O [M23A] (H-GVIINVKCKISRQCLEPCKKAGARFGKCMNGKCHCTPK-OH; disulfide 8-28, 14-33, 18-35)",0.0714 nM,0.0386 nM
"CC[C@H](C)[C@@H]1NC(=O)[C@H](CCCCN)NC(=O)[C@@H](NC(=O)[C@H](CCCCN)NC(=O)[C@@H](NC(=O)[C@H](CC(N)=O)NC(=O)[C@@H](NC(=O)[C@@H](NC(=O)[C@@H](NC(=O)CN)C(C)C)[C@@H](C)CC)[C@@H](C)CC)C(C)C)CSSC[C@@H]2NC(=O)[C@H](CCCCN)NC(=O)CNC(=O)[C@H](Cc3ccccc3)NC(=O)[C@H](CCCNC(=N)N)NC(=O)[C@H](CCC(=O)O)NC(=O)CNC(=O)[C@H](C)NC(=O)[C@H](CCCCN)NC(=O)[C@H](CCCCN)NC(=O)[C@@H]3CSSC[C@@H](C(=O)N[C@H](C(=O)N4CCC[C@H]4C(=O)N[C@@H](CCCCN)C(=O)O)[C@@H](C)O)NC(=O)[C@H](Cc4c[nH]cn4)NC(=O)[C@H](CSSC[C@H](NC(=O)[C@H](CCC(N)=O)NC(=O)[C@H](CCCNC(=N)N)NC(=O)[C@H](CO)NC1=O)C(=O)N[C@@H](CC(C)C)C(=O)N[C@@H](CCC(=O)O)C(=O)N1CCC[C@H]1C(=O)N3)NC(=O)[C@H](CCCCN)NC(=O)CNC(=O)[C@H](CC(N)=O)NC(=O)[C@H](CCSC)NC2=O [M23E] (H-GVIINVKCKISRQCLEPCKKAGERFGKCMNGKCHCTPK-OH; disulfide 8-28, 14-33, 18-35)",0.0243 nM,0.0104 nM
"CC[C@H](C)[C@@H]1NC(=O)[C@H](CCCCN)NC(=O)[C@@H](NC(=O)[C@H](CCCCN)NC(=O)[C@@H](NC(=O)[C@H](CC(N)=O)NC(=O)[C@@H](NC(=O)[C@@H](NC(=O)[C@@H](NC(=O)CN)C(C)C)[C@@H](C)CC)[C@@H](C)CC)C(C)C)CSSC[C@@H]2NC(=O)[C@H](CCCCN)NC(=O)CNC(=O)[C@H](Cc3ccccc3)NC(=O)[C@H](CCCNC(=N)N)NC(=O)[C@H](CCCNC(=N)N)NC(=O)CNC(=O)[C@H](C)NC(=O)[C@H](CCCCN)NC(=O)[C@H](CCCCN)NC(=O)[C@@H]3CSSC[C@@H](C(=O)N[C@H](C(=O)N4CCC[C@H]4C(=O)N[C@@H](CCCCN)C(=O)O)[C@@H](C)O)NC(=O)[C@H](Cc4c[nH]cn4)NC(=O)[C@H](CSSC[C@H](NC(=O)[C@H](CCC(N)=O)NC(=O)[C@H](CCCNC(=N)N)NC(=O)[C@H](CO)NC1=O)C(=O)N[C@@H](CC(C)C)C(=O)N[C@@H](CCC(=O)O)C(=O)N1CCC[C@H]1C(=O)N3)NC(=O)[C@H](CCCCN)NC(=O)CNC(=O)[C@H](CC(N)=O)NC(=O)[C@H](CCSC)NC2=O [M23R] (H-GVIINVKCKISRQCLEPCKKAGRRFGKCMNGKCHCTPK-OH; disulfide 8-28, 14-33, 18-35)",0.0123 nM,0.00201 nM
"CC[C@H](C)[C@@H]1NC(=O)[C@H](CCCCN)NC(=O)[C@@H](NC(=O)[C@H](CCCCN)NC(=O)[C@@H](NC(=O)[C@H](CC(N)=O)NC(=O)[C@@H](NC(=O)[C@@H](NC(=O)[C@@H](NC(=O)CN)C(C)C)[C@@H](C)CC)[C@@H](C)CC)C(C)C)CSSC[C@@H]2NC(=O)[C@H](CCCCN)NC(=O)CNC(=O)[C@H](Cc3ccccc3)NC(=O)[C@H](CCCNC(=N)N)NC(=O)[C@H](CCSC)NC(=O)CNC(=O)[C@H](C)NC(=O)[C@H](CCCCN)NC(=O)[C@H](CCCCN)NC(=O)[C@@H]3CSSC[C@@H](C(=O)N[C@H](C(=O)N4CCC[C@H]4C(=O)N[C@@H](CCCCN)C(=O)O)[C@@H](C)O)NC(=O)[C@H](Cc4c[nH]cn4)NC(=O)[C@H](CSSC[C@H](NC(=O)[C@H](CCC(N)=O)NC(=O)[C@H](CCCNC(=N)N)NC(=O)[C@H](CO)NC1=O)C(=O)N[C@@H](CC(C)C)C(=O)N[C@@H](CCC(=O)O)C(=O)N1CCC[C@H]1C(=O)N3)NC(=O)[C@H](CCCCN)NC(=O)CNC(=O)[C@H](CC(N)=O)NC(=O)[C@H](CCC(=O)O)NC2=O [M29E] (H-GVIINVKCKISRQCLEPCKKAGMRFGKCENGKCHCTPK-OH; disulfide 8-28, 14-33, 18-35)",> 3.33 nM,> 3.33 nM
"CC[C@H](C)[C@@H]1NC(=O)[C@H](CCCCN)NC(=O)[C@@H](NC(=O)[C@H](CCCCN)NC(=O)[C@@H](NC(=O)[C@H](C)NC(=O)[C@@H](NC(=O)[C@@H](NC(=O)[C@@H](NC(=O)CN)C(C)C)[C@@H](C)CC)[C@@H](C)CC)C(C)C)CSSC[C@@H]2NC(=O)[C@H](CCCCN)NC(=O)CNC(=O)[C@H](Cc3ccccc3)NC(=O)[C@H](CCCNC(=N)N)NC(=O)[C@H](CCSC)NC(=O)CNC(=O)[C@H](C)NC(=O)[C@H](CCCCN)NC(=O)[C@H](CCCCN)NC(=O)[C@@H]3CSSC[C@@H](C(=O)N[C@H](C(=O)N4CCC[C@H]4C(=O)N[C@@H](CCCCN)C(=O)O)[C@@H](C)O)NC(=O)[C@H](Cc4c[nH]cn4)NC(=O)[C@H](CSSC[C@H](NC(=O)[C@H](CCC(N)=O)NC(=O)[C@H](CCCNC(=N)N)NC(=O)[C@H](CO)NC1=O)C(=O)N[C@@H](CC(C)C)C(=O)N[C@@H](CCC(=O)O)C(=O)N1CCC[C@H]1C(=O)N3)NC(=O)[C@H](CCCCN)NC(=O)CNC(=O)[C@H](CC(N)=O)NC(=O)[C@H](CCSC)NC2=O [N5A] (H-GVIIAVKCKISRQCLEPCKKAGMRFGKCMNGKCHCTPK-OH; disulfide 8-28, 14-33, 18-35)",0.16 nM,0.014 nM
"CC[C@H](C)[C@@H]1NC(=O)[C@H](CCCCN)NC(=O)[C@@H](NC(=O)[C@H](CCCCN)NC(=O)[C@@H](NC(=O)[C@H](CCC(=O)O)NC(=O)[C@@H](NC(=O)[C@@H](NC(=O)[C@@H](NC(=O)CN)C(C)C)[C@@H](C)CC)[C@@H](C)CC)C(C)C)CSSC[C@@H]2NC(=O)[C@H](CCCCN)NC(=O)CNC(=O)[C@H](Cc3ccccc3)NC(=O)[C@H](CCCNC(=N)N)NC(=O)[C@H](CCSC)NC(=O)CNC(=O)[C@H](C)NC(=O)[C@H](CCCCN)NC(=O)[C@H](CCCCN)NC(=O)[C@@H]3CSSC[C@@H](C(=O)N[C@H](C(=O)N4CCC[C@H]4C(=O)N[C@@H](CCCCN)C(=O)O)[C@@H](C)O)NC(=O)[C@H](Cc4c[nH]cn4)NC(=O)[C@H](CSSC[C@H](NC(=O)[C@H](CCC(N)=O)NC(=O)[C@H](CCCNC(=N)N)NC(=O)[C@H](CO)NC1=O)C(=O)N[C@@H](CC(C)C)C(=O)N[C@@H](CCC(=O)O)C(=O)N1CCC[C@H]1C(=O)N3)NC(=O)[C@H](CCCCN)NC(=O)CNC(=O)[C@H](CC(N)=O)NC(=O)[C@H](CCSC)NC2=O [N5E] (H-GVIIEVKCKISRQCLEPCKKAGMRFGKCMNGKCHCTPK-OH; disulfide 8-28, 14-33, 18-35)",0.0234 nM,0.00444 nM
